Legend:
Experiment in all cases: Glasshouse herbicide test, pre- and post-emergence, percentage damage
Type in all cases: in vivo
DIGSA = details: 1000 g/h, evaluated after 13 days, five point scale; for percentage damage caused to the plant, DIGSA, POST Application: post-emergence; for percentage damage caused to the plant, DIGSA, PRE Application: pre-emergence
Protocol: [The source words this procedure for another organism and reports this organism under the same test.] (§1) Seeds of a variety of test species are sown in standard soil in pots (Alopecurus myosuroides (ALOMY), Setaria faberi (SETFA), Stellaria media (STEME), Echinochloa crus-galli (ECHCG), Solanum nigrum (SOLNI), Amaranthus retoflexus (AMARE), Ipomoea hederacea (IPOHE), Lolium perenne (LOLPE). After cultivation for one day (pre-emergence) or after 8 days cultivation (post-emergence) under controlled conditions in a glasshouse (at 24/16° C., day/night; 14 hours light; 65% humidity), the plants are sprayed with an aqueous spray solution derived from the formulation of the technical active ingredient in acetone/water (50:50) solution containing 0.5% Tween 20 (polyoxyethelyene sorbitan monolaurate, CAS RN 9005-64-5). Compounds ae applied at 1000 g/h. The test plants are then grown in a glasshouse under controlled conditions in a glasshouse (at 24/16° C., day/night; 14 hours light; 65% humidity) and watered twice daily. After 13 days for pre and post-emergence, the test is evaluated for the percentage damage caused to the plant. The biological activities are shown in the following table on a five point scale (5=80-100%; 4=60-79%; 3=40-59%; 2=20-39%; 1=0-19%).

Lolium perenne (LOLPE) = details: 1000 g/h, evaluated after 13 days, five point scale; for percentage damage caused to the plant, LOLPE, POST Application: post-emergence; for percentage damage caused to the plant, LOLPE, PRE Application: pre-emergence
Protocol: as §1

Stellaria media (STEME) = details: 1000 g/h, evaluated after 13 days, five point scale; for percentage damage caused to the plant, STEME, POST Application: post-emergence; for percentage damage caused to the plant, STEME, PRE Application: pre-emergence
Protocol: as §1

[1] = tested on: Amaranthus retoflexus (AMARE); details: 1000 g/h, evaluated after 13 days; for percentage damage caused to the plant, AMARE, POST Application: post-emergence; for percentage damage caused to the plant, AMARE, PRE Application: pre-emergence
Protocol: as §1

[2] = tested on: Ipomoea hederacea (IPOHE); details: 1000 g/h, evaluated after 13 days, five point scale; for percentage damage caused to the plant, IPOHE, POST Application: post-emergence; for percentage damage caused to the plant, IPOHE, PRE Application: pre-emergence
Protocol: as §1

Setaria faberi (SETFA) = details: 1000 g/h, evaluated after 13 days, five point scale; for percentage damage caused to the plant, SETFA, POST Application: post-emergence; for percentage damage caused to the plant, SETFA, PRE Application: pre-emergence
Protocol: as §1

Solanum nigrum (SOLNI) = details: 1000 g/h, evaluated after 13 days, five point scale; for percentage damage caused to the plant, SOLNI, POST Application: post-emergence; for percentage damage caused to the plant, SOLNI, PRE Application: pre-emergence
Protocol: as §1

[3] = tested on: Echinochloa crus-galli (ECHCG); details: 1000 g/h, evaluated after 13 days, five point scale; for percentage damage caused to the plant, ECHCG, POST Application: post-emergence; for percentage damage caused to the plant, ECHCG, PRE Application: pre-emergence
Protocol: as §1

[4] = tested on: Alopecurus myosuroides (ALOMY); details: 1000 g/h, evaluated after 13 days, five point scale; for percentage damage caused to the plant, ALOMY, POST Application: post-emergence; for percentage damage caused to the plant, ALOMY, PRE Application: pre-emergence
Protocol: as §1

Row | Structure (SMILES) | percentage damage caused to the plant, DIGSA, POST Application (DIGSA) | percentage damage caused to the plant, DIGSA, PRE Application (DIGSA) | percentage damage caused to the plant, LOLPE, POST Application (Lolium perenne (LOLPE)) | percentage damage caused to the plant, LOLPE, PRE Application (Lolium perenne (LOLPE)) | percentage damage caused to the plant, STEME, POST Application (Stellaria media (STEME)) | percentage damage caused to the plant, STEME, PRE Application (Stellaria media (STEME)) | percentage damage caused to the plant, AMARE, POST Application ([1]; five point scale (Table B2)) | percentage damage caused to the plant, AMARE, PRE Application ([1]; five point scale (Table B2)) | percentage damage caused to the plant, IPOHE, POST Application [2] | percentage damage caused to the plant, IPOHE, PRE Application [2] | percentage damage caused to the plant, SETFA, POST Application (Setaria faberi (SETFA)) | percentage damage caused to the plant, SETFA, PRE Application (Setaria faberi (SETFA)) | percentage damage caused to the plant, SOLNI, POST Application (Solanum nigrum (SOLNI)) | percentage damage caused to the plant, SOLNI, PRE Application (Solanum nigrum (SOLNI)) | percentage damage caused to the plant, ECHCG, POST Application [3] | percentage damage caused to the plant, ECHCG, PRE Application [3] | percentage damage caused to the plant, AMARE, POST Application ([1]; five point scale (Table B1)) | percentage damage caused to the plant, AMARE, PRE Application ([1]; five point scale (Table B1)) | percentage damage caused to the plant, ALOMY, POST Application [4] | percentage damage caused to the plant, ALOMY, PRE Application [4]
1 | COCc1nc(C(C)F)ccc1C(=O)Nc1nnnn1C (stereo not shown) [Compound 1.007] | 5 (5=80-100%) | 3 (3=40-59%) | 2 (2=20-39%) | 1 (1=0-19%) | 5 (5=80-100%) | 4 (4=60-79%) | 5 (5=80-100%) | 5 (5=80-100%) | – | – | – | – | – | – | – | – | – | – | – | –
2 | Cc1nc2nc(C(F)(F)F)c(C(=O)Nc3nnnn3C)cc2cc1F [Compound 2.002] | 4 (4=60-79%) | 3 (3=40-59%) | 2 (2=20-39%) | 2 (2=20-39%) | 5 (5=80-100%) | 3 (3=40-59%) | 5 (5=80-100%) | 5 (5=80-100%) | – | – | – | – | – | – | – | – | – | – | – | –
3 | CS(=O)(=O)c1ccc(C(=O)Nc2nnn[nH]2)c(Cl)c1COCC(F)(F)F [Compound 1.002] | 1 (1=0-19%) | 1 (1=0-19%) | 1 (1=0-19%) | 1 (1=0-19%) | 2 (2=20-39%) | 1 (1=0-19%) | 5 (5=80-100%) | 5 (5=80-100%) | – | – | – | – | – | – | – | – | – | – | – | –
4 | COc1ccc2cc(C(=O)Nc3nnn[nH]3)c(C(F)(F)F)nc2n1 [Compound 2.001] | 1 (1=0-19%) | 1 (1=0-19%) | 1 (1=0-19%) | 1 (1=0-19%) | 3 (3=40-59%) | 1 (1=0-19%) | 3 (3=40-59%) | 1 (1=0-19%) | – | – | – | – | – | – | – | – | – | – | – | –
5 | CCCn1nnnc1NC(=O)c1cccc(Cl)c1Cl [Compound 1.016] | 1 (1=0-19%) | 1 (1=0-19%) | 1 (1=0-19%) | 1 (1=0-19%) | 1 (1=0-19%) | 2 (2=20-39%) | 3 (3=40-59%) | 4 (4=60-79%) | – | – | – | – | – | – | – | – | – | – | – | –
6 | Cc1nc(C(C)F)ccc1C(=O)Nc1nnnn1C (stereo not shown) [Compound 1.006] | 5 (5=80-100%) | 4 (4=60-79%) | 5 (5=80-100%) | 4 (4=60-79%) | 5 (5=80-100%) | 4 (4=60-79%) | 5 (5=80-100%) | 5 (5=80-100%) | – | – | – | – | – | – | – | – | – | – | – | –
7 | COc1cc2cc(C(=O)Nc3nnnn3C)c(C(F)(F)F)nc2nc1C [Compound 2.003] | 4 (4=60-79%) | 1 (1=0-19%) | 2 (2=20-39%) | 1 (1=0-19%) | 5 (5=80-100%) | 1 (1=0-19%) | 5 (5=80-100%) | 5 (5=80-100%) | – | – | – | – | – | – | – | – | – | – | – | –
8 | Cn1nnnc1NC(=O)c1ccccc1Cl [Compound 1.015] | 1 (1=0-19%) | 1 (1=0-19%) | 4 (4=60-79%) | 3 (3=40-59%) | 4 (4=60-79%) | 3 (3=40-59%) | 4 (4=60-79%) | 5 (5=80-100%) | – | – | – | – | – | – | – | – | – | – | – | –
9 | Cn1nnnc1NC(=O)c1cc(Cl)ccc1C(F)(F)F [Compound 1.009] | – | – | – | – | – | – | – | – | 5 (5=80-100%) | 4 (4=60-79%) | 1 (1=0-19%) | 1 (1=0-19%) | 5 (5=80-100%) | 5 (5=80-100%) | 2 (2=20-39%) | 2 (2=20-39%) | 5 (5=80-100%) | 5 (5=80-100%) | 5 (5=80-100%) | 5 (5=80-100%)
10 | Cc1ccc(C(F)(F)F)c(C(=O)Nc2nnnn2C)c1 [Compound 1.014] | – | – | – | – | – | – | – | – | 5 (5=80-100%) | 4 (4=60-79%) | 1 (1=0-19%) | 1 (1=0-19%) | 5 (5=80-100%) | 5 (5=80-100%) | 3 (3=40-59%) | 3 (3=40-59%) | 5 (5=80-100%) | 5 (5=80-100%) | 3 (3=40-59%) | 4 (4=60-79%)
